Experimental data: PMC10458307, “New Scaffolds of Proteasome Inhibitors: Boosting Anticancer Potential by Exploiting the Synergy of In Silico and In Vitro Methodologies” (Pharmaceuticals, 2023)
Several values for one entry are separate records, joined by “and”; a condition that tells them apart may be missing. Equal values may be shown once.

How the values were obtained:
[1] = target: T1, 20S proteasome in K562 cell lysates, C-L activity (Homo sapiens, UniProt P28072); assay: Proteasome inhibition assay in cell lysates, K562, C-L; settings: for inhibition at 10 µM: read-out: percentage of proteasome inhibition, C-L, cell lysates K562, at 10 µM; for inhibition at 100 µM: read-out: percentage of proteasome inhibition, C-L, cell lysates K562, at 100 µM
T1 sequence (P28072 35-239 limits assumed): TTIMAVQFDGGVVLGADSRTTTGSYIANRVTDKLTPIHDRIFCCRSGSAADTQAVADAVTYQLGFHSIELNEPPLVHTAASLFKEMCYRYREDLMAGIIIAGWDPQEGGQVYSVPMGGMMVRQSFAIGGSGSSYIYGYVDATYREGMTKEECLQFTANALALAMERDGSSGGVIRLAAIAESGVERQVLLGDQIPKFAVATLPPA
T1 sequence (Q99436 44-277 partner): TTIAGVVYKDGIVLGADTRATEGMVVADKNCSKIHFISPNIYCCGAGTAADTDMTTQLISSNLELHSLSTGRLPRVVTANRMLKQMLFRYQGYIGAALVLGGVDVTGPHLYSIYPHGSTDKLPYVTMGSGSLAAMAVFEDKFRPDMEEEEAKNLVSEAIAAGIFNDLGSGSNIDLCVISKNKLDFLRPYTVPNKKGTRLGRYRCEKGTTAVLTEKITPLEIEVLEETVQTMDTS
Protocol: Cells were obtained from several cultured cell lines: Jurkat, K562, HT-29, and HCT116. Pellets with 20 × 10^6 cells were prepared and washed with cold sterile phosphate buffered saline (PBS), 1×, pH 7.4 (Gibco, Thermo Fisher Scientific, Paisley, UK). The preparation of the lysates from several cell lines was performed based on the methodology described by Gavioli et al. [67]. Cells were resuspended in buffer containing 50 mM TRIS-HCl pH 7.4 (Nzytech, Lisboa, Portugal), 5 mM MgCl2 (≥98% purity, Merck, Hamburg, Germany), 1 mM DTT (Merck, Hamburg, Germany), 2 mM ATP (≥98% purity, Enzo Life Sciences Inc., Farmingdale, NY, USA), and 250 mM saccharose (Merck, Hamburg, Germany). Glass beads (Merck, Hamburg, Germany) equivalent to the volume of the cell suspension were added, and the mixture was vortexed for 2 min at 4 °C. Beads and cell debris were removed using 5 min centrifugation at 1000× g and 4 °C, followed by 20 min of centrifugation at 10,000× g at 4 °C. Cell lysates containing proteasomes were resuspended in “activity buffer” [50 mM TRIS-HCl (pH 7.4), 5 mM MgCl2, 1 mM DTT, 2 mM ATP (≥98% purity, Enzo Life Sciences Inc., Farmingdale, NY, USA), and 500 µM EDTA (≥98% purity, Merck, Hamburg, Germany)]. Protein concentration was determined using the Pierce™ BCA protocol (Thermo Fisher Scientific, Rockford, IL, USA). […] DMSO was added in an equal volume as used for the untreated compounds as a way to assess/control its influence in the assay. Untreated cells were used as control. In each well of a 96-well plate, 25 µL of lysate were seeded in duplicate with 25 µL of the compound to test; in the control, 25 µL of activity buffer were added to the 25 µL of lysate. A blank (50 µL of activity buffer) was added to the wells in quadruplicate. Cell lysates, pre-treated or not with different concentrations of the test compounds, were incubated for 30 min at 37 °C. […] Stock solutions (10 mM) of each substrate were prepared in DMSO, diluted in activity buffer, and 50 µL were added to all wells (final concentration of each substrate = 100 µM), followed by an incubation at 37 °C for 60 min. Samples fluorescence was measured at an excitation wavelength of 360 nm and emission of 465 nm; the fluorescence measures were performed using the GloMax-Multi + Detection System (Promega Corp., Madison, WI, USA). Activity was evaluated in fluorescence units, after being converted to percentage of proteasome inhibition and, whenever possible, expressed as IC50 by plotting the inhibition data of each compound at different concentrations against the log of the concentration of the inhibitor, using the GraphPad Prism software version 7. At least eight different concentrations of the test compounds were used.

[2] = system: proteasome CT-L active site; settings: literature values of known proteasome inhibitors; reference per compound; cited from earlier work
[3] = system: HT-29 cells; assay: Cell viability, MTT assay, HT-29; assay type: cell-based, human; settings: 72 h; for IC50: Homo sapiens, HT-29, mean ± SD; for percentage of cell viability, MTT, HT-29: at 100 µM
Protocol: (§1) Whenever possible, additional concentrations were tested and IC50 values were determined.
(§2) Human leukemia Jurkat E6.1 T-cell line and K562-cell line were originally obtained from ATCC Collections (Manassas, VA, USA); human HT-29 and HCT116 colorectal carcinoma-cell lines were obtained from ECACC (Porton Down, Porton, UK). Cells were passaged for less than 6 months after and routinely tested for mycoplasma contamination using Mycoalert detection kit (Lonza, Basel, Switzerland). Jurkat, K562, and HT-29 cells were maintained in Roswell Park Memorial Institute (RPMI) 1640 with GlutaMAX™, supplemented with 1% antibiotic mixture (100 µg/mL streptomycin and 100 U/mL penicillin) and 10% heat-inactivated foetal bovine serum (FBS) (all from Gibco, Thermo Fisher Scientific, Paisley, UK). HCT116 cells were maintained in Dulbecco’s Modified Eagle Medium (DMEM) with GlutaMAX™, supplemented with 1% antibiotic mixture (100 µg/mL streptomycin and 100 U/mL penicillin) and 10% heat-inactivated FBS (all from Gibco, Thermo Fisher Scientific, Paisley, UK). Incubation was performed at 37 °C in a 5% CO2 atmosphere. Cells were routinely passaged every 2 or 3 days at 70–90% confluence; TrypLE Express (Gibco, Thermo Fisher Scientific, Paisley, UK) was used as dissociation agent for adherent cells. Trypan blue (Gibco, Thermo Fisher Scientific, Paisley, UK) was used to assess cell viability using the dye exclusion test.
(§3) To assess cell viability, the MTT assay was performed. Jurkat/K562/HT-29/HCT116 cell lines were seeded in triplicate (10,000 cells/well) in 96-well plates with 50 µL of complete medium and incubated at 37 °C, 5% CO2 for 24 h to allow the cells to adhere to the plate (in the case of adherent cells). […] Untreated cells seeded in triplicate were used as control. The blank was performed in triplicate with 100 µL of culture medium. The cells were incubated with the compounds, in triplicate, in 100 µL of total volume, at 37 °C, 5% CO2 for 72 h. […] In suspension cells (Jurkat), 25 µL of MTT were directly added to each well and, after 3 h 30 m of incubation, 100 µL of DMSO were added to solubilize the formazan crystals; in adherent cells (HT-29 and HCT116), the culture medium was removed, 25 µL of MTT were added to each well and, after 3 h 30 m of incubation, upon MTT removal, 100 µL of DMSO were added to solubilize the formazan crystals. After 15 min, the samples absorbance was measured at 570 nm and the percentage of cell viability was determined.

[4] = system: proteasome C-L active site; settings: literature values; ref 34 (bortezomib), 35 (ixazomib); cited from earlier work
[5] = system: K562 cells; assay: Cell viability, MTT assay, K562; assay type: cell-based, human; settings: at 100 µM, 72 h
Protocol: as §1, §2, §3

[6] = at 100 µM, Table 2 legend: bortezomib 10 µM
[7] = Table 2 legend: bortezomib 10 µM

SMILES	percentage of proteasome inhibition, C-L, cell lysates K562 ([1]; at 10 µM) [%]	percentage of proteasome inhibition, C-L, cell lysates K562 [1, 6]	IC50 [2] [nM]	IC50 [3] [µM]	IC50 [4] [µM]	percentage of cell viability, MTT, HT-29 [3] [%]	inhibition at 10 µM [1] [%]	inhibition at 100 µM [1, 7] [%]	percentage of cell viability, MTT, K562 [5] [%]
CC(C)C[C@H](NC(=O)[C@H](Cc1ccccc1)NC(=O)c1cnccn1)B(O)O [Bortezomib, bortezomib, reference compound]	94.99	97.19% and 97%	7	0.00973	0.074				
C#CCCN1CCN(c2ccc(-n3c(=O)ccc4cnc5ccc(-c6ccc(N)nc6)cc5c43)cc2C(F)(F)F)CC1 [Compound 4, 9-(6-Aminopyridin-3-yl)-1-(4-(4-(but-3-yn-1-yl)piperazin-1-yl)-3-(trifluoromethyl)phenyl)benzo[h][1,6]naphthyridin-2(1H)-one]				43		34			
CC(C)c1nc(CN(C)C(=O)N[C@@H](CCN2CCOCC2)C(=O)N[C@H](CC[C@H](Cc2ccccc2)NC(=O)OCc2cncs2)Cc2ccccc2)cs1 [Compound 5, cobicistat, reference compound]				70.5		25			
Cc1ccc(/C(=N/NS(=O)(=O)c2ccc([N+](=O)[O-])cc2)Sc2cc(Cl)c(C)cc2S(N)(=O)=O)cc1 [Compound 3]		39%					14.2	38.8	
O=C1c2ccccc2C(=O)c2c(Nc3ccc(S(=O)(=O)N(CCO)CCO)cc3)ccc(O)c21 [Compound 2]		63%				65	0	63.2	86.52
Cc1ccc2ccccc2c1CSc1ncnc2c1ncn2C1OC(CO)C(O)C1O (centres unmarked) [Compound 1]		28%		61.7		23	0	28.2	18
